Each structure is given as a SMILES string. Where only a bound is given, the exact number is not on record here.

Series [1] can be described thus: Selectivity index, ratio of CC50 for African green monkey Vero cells to IC50 for Vaccinia virus Copenhagen infected in Vero cells. In kind it is toxicity, cell-based. To be noted: read-out: Ratio CC50/IC50.
The subject of the next series is Vaccinia virus. Put plainly: Antiviral activity against Vaccinia virus Copenhagen infected in Vero cells measured after 4 days by colorimetric assay. In kind it is functional, organism-based, Orthopoxvirus vaccinia.
The test system of a further series is Influenza A virus. Put plainly: Antiviral activity against Influenza A virus (A/California/07/2009(H1N1)) infected in MDCK cells measured after 4 days by colorimetric assay. It is filed as functional, organism-based.
The nature of series [2]: Selectivity index, ratio of CC50 for African green monkey Vero cells to IC50 for ectromelia virus K-1 infected in Vero cells. It is filed as toxicity, cell-based. To be noted: read-out: Ratio CC50/IC50.
Series [3] can be described thus: Selectivity index, ratio of CC50 for African green monkey Vero cells to IC50 for Cowpox virus Grishak infected in Vero cells. To be noted: read-out: Ratio CC50/IC50. In kind it is toxicity, cell-based.
Another series deals with Cowpox virus. Put plainly: Antiviral activity against Cowpox virus Grishak infected in Vero cells measured after 4 days by colorimetric assay. In kind it is functional, organism-based. The following applies: 96 h.
For another series, the system named is Ectromelia virus. The series is described as follows: Antiviral activity against ectromelia virus K-1 infected in Vero cells measured after 4 days by colorimetric assay. In kind it is functional, organism-based. The following applies: K-1, Vero, 96 h.
Series [4] in a line: (§1) Cytotoxicity against MDCK cells measured after 4 days by colorimetric assay. It is filed as toxicity, cell-based, Canis lupus familiaris. To be noted: dog, MDCK cells; time 4 day.
Series [5] is described as follows: (§2) Cytotoxicity against African green monkey Vero cells measured after 4 days by colorimetric assay. In kind it is toxicity, cell-based. To be noted: chlorocebus sabaeus, Vero cells; time 4 day.
The nature of series [6]: Selectivity index, ratio of CC50 for MDCK cells to IC50 for Influenza A virus (A/California/07/2009(H1N1)) infected in MDCK cells. It is filed as toxicity, cell-based. To be noted: dog, read-out: Ratio CC50/IC50.
In another series the test system is Vero. The series is described as §2. It is filed as toxicity, cell-based. To be noted: chlorocebus sabaeus, vero, 96 h; time 4 day.
The subject of another series is MDCK. Described as §1. It is filed as toxicity, cell-based, Canis lupus familiaris. The following applies: dog, mdck, 96 h; time 4 day.
Where [7] appears, read: Orthopoxvirus vaccinia, Copenhagen, Vero, 96 h, read-out: IC50.
[8] abbreviates: Influenza A virus, A/California/07/2009(H1N1), MDCK, 96 h, read-out: IC50.

Turning to `CCCCNC(=O)c1c(O)nc(-c2ccc([N+](=O)[O-])cc2)n1O`, the selectivity ratio amounted to 66 in series [1], 23 in [2] and 16 in series [3]. Moreover, the IC50 in the series with Vaccinia virus (setting [7]) is 3.02 µM; in the series with Influenza A virus (mdck) it was “Not Active”; in the series with Cowpox virus it was 12.3 µM; in the series on Ectromelia virus, 8.9 µM. Further, the CC50 at 96 h in [4] stood at 27.2 µM; in series [5], 201 µM.

For `CCOC(=O)c1c(O)nc(-c2ccccc2)n1O`, the IC50 entry in the series on Vaccinia virus (vero) is “Not Active”; in the series on Influenza A virus (setting [8]), 213 µM. The figures for the CC50 at 96 h in series [4] and in series [5] were more than 406 µM and 172 µM, respectively. Also, the selectivity ratio in [6] was found to be 1.9.

Take `CCCCNC(=O)c1c(O)nc(-c2ccccc2[N+](=O)[O-])n1O`: the IC50 result in the series with Vaccinia virus (vero) and with Influenza A virus (mdck) was “Not Active” throughout. Also, the CC50 at 96 h in series [4] and in [5] was more than 314 µM throughout.

Consider `O=C(NC1CC1)c1c(O)nc(-c2cccc([N+](=O)[O-])c2)n1O`, for which the IC50 result with Vaccinia virus (vero) and with Influenza A virus (mdck) was “Not Active” each time. Moreover, the CC50 at 96 h was more than 331 µM in [4] and 261 µM in [5].

Consider `O=C(NNC(=O)C1C2C=CC(C3CC23)C1C(=O)O)c1ccc(C(F)(F)F)cc1` (centres undefined), for which the selectivity ratio in [1] turned out to be 157; in series [2] it was 157; in [3] it was 58.8. In addition, the IC50 in the series on Vaccinia virus (setting [7]) turned out to be 0.0076 µM; in the series on Cowpox virus, 0.0203 µM; in the series with Ectromelia virus it was 0.0076 µM. Besides, in the series on Vero, the midpoint of cytotoxicity, the CC50, lay at 1190 µM.

For the molecule `O=C(NC1CC1)c1c(O)nc(-c2ccccc2)n1O`, the IC50 result in the series on Vaccinia virus (vero) and with Influenza A virus (mdck) was “Not Active” throughout. Moreover, the CC50 at 96 h in series [4] and in [5] was more than 389 µM throughout.

As for `CCCCNC(=O)c1c(O)nc(-c2ccccc2)n1O`, in series [1], the selectivity ratio came to 6. The figures for the IC50 in the series on Vaccinia virus (setting [7]) and with Influenza A virus (mdck) were 73.4 µM and “Not Active”, respectively. For the same molecule, the CC50 at 96 h is more than 366 µM in series [4] and 436 µM in [5].

For `CCOC(=O)c1c(O)nc(-c2cccc([N+](=O)[O-])c2)n1O`, the IC50 entry is “Not Active” in the series on Vaccinia virus (vero) and 118 µM in the series with Influenza A virus (setting [8]). Further, the CC50 at 96 h in series [4] is more than 344 µM; in series [5], 375 µM. In addition, the selectivity ratio in [6] was 2.9.

Regarding `CCOC(=O)c1c(O)nc(-c2ccc([N+](=O)[O-])cc2)n1O`, the selectivity ratio in series [1] came to 102; in series [2] it was 43; in [3], 14; in [6] it was 1.8. Also, the IC50 with Vaccinia virus (setting [7]) was found to be 0.45 µM; in the series on Influenza A virus (setting [8]), 188 µM; in the series with Cowpox virus, 3.23 µM; in the series on Ectromelia virus, 1.07 µM. For the same molecule, the figures for the CC50 at 96 h in [4] and in series [5] were more than 344 µM and 45.7 µM, respectively.

In the case of `CCCCNC(=O)c1c(O)nc(-c2cccc([N+](=O)[O-])c2)n1O`, the selectivity ratio in series [1] was determined as 9. Further, the IC50 in the series with Vaccinia virus (setting [7]) is 17.6 µM; in the series with Influenza A virus (mdck) it was “Not Active”. The CC50 at 96 h in [4] was more than 314 µM; in series [5], 164 µM.

On to `O=C(NC1CC1)c1c(O)nc(-c2ccccc2[N+](=O)[O-])n1O`, for which the IC50 entry with Vaccinia virus (vero) and with Influenza A virus (mdck) was “Not Active” each time. Also, the CC50 at 96 h in series [4] and in [5] was more than 331 µM throughout.

Take `CCOC(=O)c1c(O)nc(-c2ccc(C(F)(F)F)cc2)n1O`: the selectivity ratio in series [1] came to 919; in [2] it was 46; in [3] it was 32. The IC50 with Vaccinia virus (setting [7]) is 0.35 µM; in the series on Influenza A virus (mdck), “Not Active”; in the series on Cowpox virus, 10 µM; in the series on Ectromelia virus, 6.75 µM. In addition, the CC50 at 96 h was more than 318 µM in [4] and 322 µM in [5].

Regarding `CCCCNC(=O)c1c(O)nc(-c2ccc(C(F)(F)F)cc2)n1O`, in [1], the selectivity ratio is 8. Further, the IC50 in the series on Vaccinia virus (setting [7]) is 3.4 µM; with Influenza A virus (mdck) it was “Not Active”. The molecule further came in with a CC50 with MDCK of 12.9 µM. Also, the CC50 at 96 h in series [5] came to 26 µM.

`O=C(NC1CC1)c1c(O)nc(-c2ccc(C(F)(F)F)cc2)n1O`: the selectivity ratio in [1] was found to be 10. The results for the half-maximal inhibitory concentration (IC50) in the series with Vaccinia virus (setting [7]) and in the series on Influenza A virus (mdck) were 20.6 µM and “Not Active”, respectively. For the same molecule, the CC50 at 96 h was more than 308 µM in series [4] and 202 µM in series [5].

For `O=C(NC1CC1)c1c(O)nc(-c2ccc([N+](=O)[O-])cc2)n1O`, the figures for the selectivity ratio in series [1], in series [2] and in [3] were 33, 24 and 16, respectively. In addition, the IC50 is 10.7 µM in the series with Vaccinia virus (setting [7]), “Not Active” in the series on Influenza A virus (mdck), 22.1 µM in the series on Cowpox virus and 14.7 µM in the series with Ectromelia virus. Further, the CC50 at 96 h in series [4] is more than 331 µM; in series [5], 357 µM.

Regarding `CCOC(=O)c1c(O)nc(-c2ccccc2O)n1O`, the figures for the selectivity ratio in [1], in series [2] and in [3] were 117, 77 and 58, respectively. In addition, the IC50 in the series on Vaccinia virus (setting [7]) was 15.5 µM; with Influenza A virus (mdck), “Not Active”; with Cowpox virus it was 31.4 µM; in the series on Ectromelia virus it was 23.6 µM. Further, the CC50 at 96 h was more than 382 µM in series [4] and 1830 µM in series [5].

Consider `O=C(NC1CC1)c1c(O)nc(-c2ccccc2O)n1O`, for which the IC50 entry in the series with Vaccinia virus (vero) and with Influenza A virus (mdck) was “Not Active” throughout. Besides, the CC50 was more than 366 µM in the series with MDCK and 299 µM with Vero.

For `CCCCNC(=O)c1c(O)nc(-c2ccccc2O)n1O`, the selectivity ratio in series [1] amounted to 13. For the same molecule, the IC50 in the series with Vaccinia virus (setting [7]) is 15 µM; with Influenza A virus (mdck), “Not Active”. Besides, the CC50 at 96 h is 42.9 µM in [4] and 197 µM in [5].

Take `CCOC(=O)c1c(O)nc(-c2ccccc2[N+](=O)[O-])n1O`: the IC50 entry in the series with Vaccinia virus (vero) and in the series with Influenza A virus (mdck) was “Not Active” in each case. In addition, the results for the CC50 at 96 h in series [4] and in [5] were more than 344 µM and 343 µM, respectively.

As for `Nc1ccn(C[C@@H](CO)OCP(=O)(O)O)c(=O)n1` [CIDOFOVIR], the selectivity ratio amounted to 30 in series [1], 29 in series [2] and 21 in series [3]. In addition, the results for the IC50 with Vaccinia virus (setting [7]), in the series on Cowpox virus and in the series on Ectromelia virus were 32.5 µM, 46.4 µM and 34 µM, respectively. In addition, half-maximal cytotoxicity with Vero (CC50) was put at 989 µM.

For orientation: IC50 means the concentration that gives 50% inhibition. A word on the CC50: it is the concentration at which the toxic effect on the cells reaches its halfway point.
